According to ChEMBL document CHEMBL3871268, “Chalcogen containing heterocyclic scaffolds: New hybrids with antitumoral activity” (Eur J Med Chem, 2016):
Residues, ends and D or L forms follow the SMILES beside them. *: point of attachment. Cbz = O=C(OCc1ccccc1)*; CH2F = FC*

Test system: not listed separately
Assay: Cytotoxicity against human PC3 cells assessed as reduction in cell viability measured after 72 hrs by MTT assay
Assay type: functional
Conditions: PC-3, 72 h

Compound	GI50	LC50 (concentration lethal to 50% of cells)	TGI
Cc1noc(C)c1C[Se]C#N	5.6 µM	17.6 µM	10.3 µM
O=C1c2ccccc2C(=O)N1CS	74.7 µM	> 100 µM	> 100 µM
N#CSCN1C(=O)c2ccccc2C1=O	> 100 µM	> 100 µM	> 100 µM
SCc1cc2c(cc1Br)OCO2	87.5 µM	> 100 µM	> 100 µM
C[Se]c1ccc2ccccc2n1	83.6 µM	> 100 µM	> 100 µM
[SeH]c1ccnc([SeH])n1	9.8 µM	51.3 µM	28.3 µM
O=C1c2ccccc2C(=O)N1C[SeH]	6.4 µM	16.9 µM	9.4 µM
CSc1ccnc(SC)n1	77.5 µM	> 100 µM	> 100 µM
N#CSCc1cc2c(cc1Br)OCO2	23.8 µM	74.2 µM	41.8 µM
N#C[Se]CN1C(=O)c2ccccc2C1=O	11.2 µM	56.7 µM	32.1 µM
[SeH]Cc1c2ccccc2nc2ccccc12	83.2 µM	> 100 µM	> 100 µM
[SeH]c1nc2ccccc2s1	> 50 µM	> 50 µM	> 50 µM
CSc1nc2ccccc2s1	39.6 µM	–	–
N#C[Se]Cc1c2ccccc2nc2ccccc12	16.6 µM	40 µM	28.3 µM
[SeH]Cc1cc2c(cc1Br)OCO2	34.6 µM	> 50 µM	> 50 µM
N#C[Se]Cc1cc2c(cc1Br)OCO2	24 µM	> 100 µM	45.7 µM
C[Se]c1nc2ccccc2s1	> 100 µM	> 100 µM	> 100 µM
Sc1ccc2ccccc2n1	85.3 µM	> 100 µM	> 100 µM
N#CSc1nc2ccccc2s1	42 µM	85.5 µM	66.3 µM
N#CSc1nccc(Cl)n1	> 100 µM	> 100 µM	> 100 µM
Sc1nc2ccccc2s1 [2-MERCAPTOBENZOTHIAZOLE]	84.9 µM	–	> 100 µM
N#CSCc1ccc(-n2cccc2)cc1	14.1 µM	88.1 µM	60.3 µM
C[Se](=O)O	2.5 µM	37.1 µM	8.4 µM
N#CSCc1c2ccccc2nc2ccccc12	1.5 µM	28.3 µM	2.4 µM
CSc1ccc2ccccc2n1	87 µM	> 100 µM	> 100 µM
Sc1ccnc(S)n1	82.5 µM	> 100 µM	> 100 µM

Test system: not listed separately
Assay: Cell cycle analysis in human MCF7 cells assessed as accumulation at SubG1 phase at 6 uM measured after 24 hrs by propidium iodide staining-based flow cytometry (reference value: 2.6%)
Assay type: functional
Conditions: not given

Compound	Activity
CC[C@@]1(O)C(=O)OCc2c1cc1n(c2=O)Cc2cc3ccccc3nc2-1	4.4%

Test system: not listed separately
Assay: Cell cycle arrest in human MCF7 cells assessed as sub-diploid cells at 50 uM pretreated with pan-caspase inhibitor Z-VAD-FMK for 1 hr followed by compound addition measured after 48 hrs by propidium iodide staining-based flow cytometry assay (reference value: 1.9%)
Assay type: functional
Set-up: scale not given: the % may be the effect or the level left
Conditions: not given

Compound	Activity
CC(C)[C@H](NC(=O)OCc1ccccc1)C(=O)N[C@@H](C)C(=O)N[C@@H](CC(=O)O)C(=O)CF (Cbz-Val-Ala-Asp-CH2F)	3.9%

Test system: not listed separately
Assay: Cytotoxicity against human MCF7 cells assessed as reduction in cell viability measured after 72 hrs by MTT assay
Assay type: functional
Conditions: MCF7, 72 h

Compound	GI50	LC50	TGI
Cc1noc(C)c1C[Se]C#N	2.2 µM	24.5 µM	8.3 µM
O=C1c2ccccc2C(=O)N1CS	> 100 µM	> 100 µM	> 100 µM
N#CSCN1C(=O)c2ccccc2C1=O	48.1 µM	> 100 µM	> 100 µM
SCc1cc2c(cc1Br)OCO2	3.2 µM	> 100 µM	> 100 µM
C[Se]c1ccc2ccccc2n1	21 µM	> 100 µM	> 100 µM
[SeH]c1ccnc([SeH])n1	6.7 µM	75.4 µM	40 µM
O=C1c2ccccc2C(=O)N1C[SeH]	6 µM	12.5 µM	8.2 µM
CSc1ccnc(SC)n1	> 100 µM	> 100 µM	> 100 µM
N#CSCc1cc2c(cc1Br)OCO2	6.7 µM	> 100 µM	> 100 µM
N#C[Se]CN1C(=O)c2ccccc2C1=O	15.4 µM	93.4 µM	56.1 µM
[SeH]Cc1c2ccccc2nc2ccccc12	39.1 µM	> 100 µM	> 100 µM
[SeH]c1nc2ccccc2s1	> 50 µM	> 50 µM	> 50 µM
N#C[Se]Cc1c2ccccc2nc2ccccc12	40.1 µM	44.5 µM	67.6 µM
[SeH]Cc1cc2c(cc1Br)OCO2	22.2 µM	> 50 µM	> 50 µM
N#C[Se]Cc1cc2c(cc1Br)OCO2	66.9 µM	> 100 µM	> 100 µM
C[Se]c1nc2ccccc2s1	7.2 µM	> 100 µM	> 100 µM
Sc1ccc2ccccc2n1	> 100 µM	> 100 µM	> 100 µM
N#CSc1nc2ccccc2s1	40.1 µM	87.7 µM	67.6 µM
N#CSc1nccc(Cl)n1	35 µM	> 100 µM	> 100 µM
Sc1nc2ccccc2s1 [2-MERCAPTOBENZOTHIAZOLE]	> 100 µM	–	> 100 µM
N#CSCc1ccc(-n2cccc2)cc1	8.2 µM	> 100 µM	36.9 µM
C[Se](=O)O	1.3 µM	> 100 µM	3.4 µM
N#CSCc1c2ccccc2nc2ccccc12	0.9 µM	34.4 µM	17.5 µM
CSc1ccc2ccccc2n1	> 100 µM	> 100 µM	> 100 µM
Sc1ccnc(S)n1	> 100 µM	> 100 µM	> 100 µM

Test system: MCF7
Assay: Selectivity index, ratio of GI50 for human 184B5 cells to GI50 for human MCF7 cells
Assay type: functional
Conditions: not given

Compound	RatioGI50
Cc1noc(C)c1C[Se]C#N	<1
SCc1cc2c(cc1Br)OCO2	>37
[SeH]c1ccnc([SeH])n1	1.6
O=C1c2ccccc2C(=O)N1C[SeH]	2.1
N#CSCc1cc2c(cc1Br)OCO2	>14.9
C[Se]c1nc2ccccc2s1	>13.9
N#CSCc1ccc(-n2cccc2)cc1	1.6
C[Se](=O)O	1.4
N#CSCc1c2ccccc2nc2ccccc12	16

Test system: not listed separately
Assay: Cell cycle analysis in human MCF7 cells assessed as accumulation at S phase at 6 uM measured after 24 hrs by propidium iodide staining-based flow cytometry (reference value: 15.3%)
Assay type: functional
Conditions: not given

Compound	Activity
CC[C@@]1(O)C(=O)OCc2c1cc1n(c2=O)Cc2cc3ccccc3nc2-1	16.3%

Test system: not listed separately
Assay: Cell cycle arrest in human MCF7 cells assessed as M1 quadrant cells at 50 uM pretreated with pan-caspase inhibitor Z-VAD-FMK for 1 hr followed by compound addition measured after 48 hrs by propidium iodide staining-based flow cytometry assay (reference value: 98.1%)
Assay type: functional
Set-up: scale not given: the % may be the effect or the level left
Conditions: not given

Compound	Activity
CC(C)[C@H](NC(=O)OCc1ccccc1)C(=O)N[C@@H](C)C(=O)N[C@@H](CC(=O)O)C(=O)CF (Cbz-Val-Ala-Asp-CH2F)	96.1%

Test system: not listed separately
Assay: Cell cycle analysis in human MCF7 cells assessed as accumulation at G2/M phase at 6 uM measured after 24 hrs by propidium iodide staining-based flow cytometry (reference value: 8.9%)
Assay type: functional
Conditions: not given

Compound	Activity
CC[C@@]1(O)C(=O)OCc2c1cc1n(c2=O)Cc2cc3ccccc3nc2-1	25.8%

Test system: not listed separately
Assay: Cell cycle analysis in human MCF7 cells assessed as accumulation at G0/G1 phase at 6 uM measured after 24 hrs by propidium iodide staining-based flow cytometry (reference value: 73.6%)
Assay type: functional
Conditions: not given

Compound	Activity
CC[C@@]1(O)C(=O)OCc2c1cc1n(c2=O)Cc2cc3ccccc3nc2-1	54.6%

Test system: not listed separately
Assay: Cytotoxicity against human 184B5 cells assessed as reduction in cell viability measured after 72 hrs by MTT assay
Assay type: toxicity, cell-based
Conditions: 184B5 cells

Compound	GI50 at 72 h
Cc1noc(C)c1C[Se]C#N	2 µM
SCc1cc2c(cc1Br)OCO2	> 100 µM
[SeH]c1ccnc([SeH])n1	10.7 µM
O=C1c2ccccc2C(=O)N1C[SeH]	12.7 µM
N#CSCc1cc2c(cc1Br)OCO2	> 100 µM
C[Se]c1nc2ccccc2s1	> 100 µM
N#CSCc1ccc(-n2cccc2)cc1	12.9 µM
C[Se](=O)O	1.8 µM
N#CSCc1c2ccccc2nc2ccccc12	14.4 µM
CSc1ccc2ccccc2n1	> 100 µM

Same assay, conditions: 184b5, 72 h

Compound	LC50	TGI
Cc1noc(C)c1C[Se]C#N	22.8 µM	4 µM
SCc1cc2c(cc1Br)OCO2	> 100 µM	> 100 µM
[SeH]c1ccnc([SeH])n1	63.7 µM	35.3 µM
O=C1c2ccccc2C(=O)N1C[SeH]	21.9 µM	17.4 µM
N#CSCc1cc2c(cc1Br)OCO2	> 100 µM	> 100 µM
C[Se]c1nc2ccccc2s1	> 100 µM	> 100 µM
N#CSCc1ccc(-n2cccc2)cc1	> 100 µM	23.5 µM
C[Se](=O)O	> 100 µM	3.8 µM
N#CSCc1c2ccccc2nc2ccccc12	38.5 µM	26.4 µM
CSc1ccc2ccccc2n1	> 100 µM	> 100 µM
